Results as given in patent publication US11976072B2, “Diacylglycerol kinase modulating compounds” (priority 2021, dated 2024).
Like-named read-outs stand apart in the source and are kept apart here.

Experiments:
human DGKα = human DGKα (Homo sapiens, UniProt P23743); test: DGKα Biochemical Activity Assay (ADP-Glo); details: recombinant DGKα 1 nM, 100 μM ATP, 18:1 DAG/POPS/octylglucoside micelles, 1 hour at 25° C.; geometric mean; read-out: HTBS DGKa 1X ATP KM IC50;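 note: luminescent detection of ADP produced as DGKα phosphorylates DAG to phosphatidic acid, IC50 from four-parameter nonlinear curve fit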
[1] = test system: Jurkat NFκB-luciferase cells; test: Jurkat NFκB-Luciferase Assay; format: cell-based; details: Homo sapiens
Method: The day after, the excess antibody was washed out five times with 100 ul/well of assay medium (RPMI supplemented with 10% fetal bovine serum) using a Biotek EL406 instrument and leaving 20 ul of residual volume in each well. Jurkat NFκB-luciferase cells (Promega #) were harvested and diluted to 1 million cells/ml in assay medium. […] Thirty microliters of medium containing the Jurkat NFκB-luciferase cells were then dispensed using a Biotek MicroFlo instrument in each well of the compound-containing plate. […] Forty microliters of One-Glo Ex (Promega) was then added to the assay mixture and luciferase activity was read on a Envision plate reader 7 minutes later.

[2] = Jurkat NFκB-luciferase cells activated with anti-CD3 antibody (OKT3), 2.5 hrs at 37° C., geometric mean, read-out: DGK NFKb Luciferase EC50

Sequence of human DGKα (P23743 whole entry): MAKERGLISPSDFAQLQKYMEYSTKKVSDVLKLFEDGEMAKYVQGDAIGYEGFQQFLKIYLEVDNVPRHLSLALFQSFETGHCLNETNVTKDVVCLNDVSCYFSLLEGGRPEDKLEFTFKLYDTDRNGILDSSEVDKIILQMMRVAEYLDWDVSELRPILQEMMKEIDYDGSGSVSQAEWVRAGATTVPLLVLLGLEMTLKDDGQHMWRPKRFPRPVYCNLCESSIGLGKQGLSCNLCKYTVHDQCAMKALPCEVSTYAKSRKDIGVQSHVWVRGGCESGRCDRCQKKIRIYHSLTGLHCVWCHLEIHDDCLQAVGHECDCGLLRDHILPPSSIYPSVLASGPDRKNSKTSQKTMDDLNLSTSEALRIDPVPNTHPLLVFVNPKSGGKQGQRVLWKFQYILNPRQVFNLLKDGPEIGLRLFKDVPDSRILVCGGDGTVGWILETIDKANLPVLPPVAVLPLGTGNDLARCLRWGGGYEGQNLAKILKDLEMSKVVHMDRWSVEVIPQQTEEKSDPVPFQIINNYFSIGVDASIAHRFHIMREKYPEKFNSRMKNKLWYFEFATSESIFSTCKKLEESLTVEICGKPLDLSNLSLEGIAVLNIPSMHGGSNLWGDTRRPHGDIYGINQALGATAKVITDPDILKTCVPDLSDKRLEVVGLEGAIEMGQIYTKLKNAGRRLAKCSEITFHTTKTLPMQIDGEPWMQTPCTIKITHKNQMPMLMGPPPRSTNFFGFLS

Structure (SMILES)	IC50 (human DGKα) [nM]	EC50 [1, 2] [nM]	EC50 ([1]; Jurkat, […], read-out: DGK NFKb Luciferase EC50 (nM)) [nM]
CC1(C#Cc2cc(F)cc(N(CC(F)F)c3nc4nncn4c4c(Cl)cc(F)cc34)c2)CC1 [Example 49, 9-chloro-N-(2,2-difluoroethyl)-7-fluoro-N-[3-fluoro-5-[2-(1-methylcyclopropyl)ethynyl]phenyl]-[1,2,4]triazolo[4,3-a]quinazolin-5-amine]	12.4	1.36	
CC(C)(O)C#Cc1cc(F)cc(N(CC(F)F)c2nc3nncn3c3c(Cl)cc(F)cc23)c1 [Example 50, 4-[3-[(9-chloro-7-fluoro-[1,2,4]triazolo[4,3-a]quinazolin-5-yl)-(2,2-difluoroethyl)amino]-5-fluoro-phenyl]-2-methyl-but-3-yn-2-ol]	11.9		16.8
Cc1nnc2nc(N(CC(F)F)c3cccc(C#CC(C)(C)C(F)F)c3F)c3c(F)cccc3n12 [Example 53, N-[3-(4,4-difluoro-3,3-dimethyl-but-1-ynyl)-2-fluoro-phenyl]-N-(2,2-difluoroethyl)-6-fluoro-1-methyl-[1,2,4]triazolo[4,3-a]quinazolin-5-amine]	18.6	0.792	
Cc1nnc2nc(N(CC(F)F)c3cccc(C#CC4(C(F)(F)F)CC4)c3F)c3c(F)cccc3n12 [Example 54, N-(2,2-difluoroethyl)-6-fluoro-N-[2-fluoro-3-[2-[1-(trifluoromethyl)cyclopropyl]ethynyl]phenyl]-1-methyl-[1,2,4]triazolo[4,3-a]quinazolin-5-amine]	32.8	1.64	
Cc1nnc2nc(N(CC(F)F)c3cccc(C#CC(C)(C)C(F)F)c3F)c3cc(F)ccc3n12 [Example 55, N-[3-(4,4-difluoro-3,3-dimethyl-but-1-ynyl)-2-fluoro-phenyl]-N-(2,2-difluoroethyl)-7-fluoro-1-methyl-[1,2,4]triazolo[4,3-a]quinazolin-5-amine]	21.6	3.42	
Cc1nnc2nc(N(CC(F)F)c3cccc(C#CC4(C)CC4)c3F)c3cc(F)ccc3n12 [Example 56, N-(2,2-difluoroethyl)-7-fluoro-N-[2-fluoro-3-[2-(1-methylcyclopropyl)ethynyl]phenyl]-1-methyl-[1,2,4]triazolo[4,3-a]quinazolin-5-amine]	13.5	0.805	
Cc1nnc2nc(N3c4cccc(C#CC(C)(C)O)c4CCC3C)c3c(F)cccc3n12 (centres unmarked) [Example 59, 4-(1-(6-fluoro-1-methyl-[1,2,4]triazolo[4,3-a]quinazolin-5-yl)-2-methyl-1,2,3,4-tetrahydroquinolin-5-yl)-2-methylbut-3-yn-2-ol]	11.2	11.7	
Cc1nnc2nc(N(CC(F)F)c3cc(F)cc(C#CC(C)(C)c4ccncc4)c3)c3c(F)c(F)ccc3n12 [Example 62, N-(2,2-difluoroethyl)-6,7-difluoro-N-(3-fluoro-5-(3-methyl-3-(pyridin-4-yl)but-1-yn-1-yl)phenyl)-1-methyl-[1,2,4]triazolo[4,3-a]quinazolin-5-amine]	80.1	3.24	
Cc1nnc2nc(N3CCOCc4c(C#CC(C)(C)C(=O)NC(C)(C)C(F)(F)F)cccc43)c3c(F)c(F)ccc3n12 [Example 63, 4-(1-(6,7-difluoro-1-methyl-[1,2,4]triazolo[4,3-a]quinazolin-5-yl)-1,2,3,5-tetrahydrobenzo[e][1,4]oxazepin-6-yl)-2,2-dimethyl-N-(1,1,1-trifluoro-2-methylpropan-2-yl)but-3-ynamide]	19.4	4.17	
Cc1nnc2nc(N3CCOCc4c(C#CC(C)(C)C(=O)NC5(C(F)(F)F)CC5)cccc43)c3c(F)c(F)ccc3n12 [Example 64, 4-(1-(6,7-difluoro-1-methyl-[1,2,4]triazolo[4,3-a]quinazolin-5-yl)-1,2,3,5-tetrahydrobenzo[e][1,4]oxazepin-6-yl)-2,2-dimethyl-N-(1-(trifluoromethyl)cyclopropyl)but-3-ynamide]	9.97	7.43	
Cc1nnc2nc(N3CCCc4c(C#CC(C)(C)C(=O)N5CCOC(C)(C)C5)cccc43)c3c(F)cccc3n12 [Example 70, 1-(2,2-dimethylmorpholino)-4-(1-(6-fluoro-1-methyl-[1,2,4]triazolo[4,3-a]quinazolin-5-yl)-1,2,3,4-tetrahydroquinolin-5-yl)-2,2-dimethylbut-3-yn-1-one]	29.2	5.62	

Now from value to compound, other results behind:

IC50 (human DGKα) [nM]	EC50 [1, 2] [nM]	Structure (SMILES)	EC50 ([1]; Jurkat, […], read-out: DGK NFKb Luciferase EC50 (nM)) [nM]
18.8	3.92	Fc1cc(C#CC2(C(F)F)CC2)cc(N(CC(F)F)c2nc3nncn3c3c(Cl)cc(F)cc23)c1 [Example 47, 9-chloro-N-(2,2-difluoroethyl)-N-[3-[2-[1-(difluoromethyl)cyclopropyl]ethynyl]-5-fluoro-phenyl]-7-fluoro-[1,2,4]triazolo[4,3-a]quinazolin-5-amine]	
5.73	3.02	Fc1cc(C#CC2(C(F)(F)F)CC2)cc(N(CC(F)F)c2nc3nncn3c3c(Cl)cc(F)cc23)c1 [Example 48, 9-chloro-N-(2,2-difluoroethyl)-7-fluoro-N-[3-fluoro-5-[2-[1-(trifluoromethyl)cyclopropyl]ethynyl]phenyl]-[1,2,4]triazolo[4,3-a]quinazolin-5-amine]	
5.01	1.92	Cc1nnc2nc(N(CC(F)F)c3cccc(C#CC4(C(F)F)CC4)c3F)c3c(F)cccc3n12 [Example 51, N-(2,2-difluoroethyl)-N-[3-[2-[1-(difluoromethyl)cyclopropyl]ethynyl]-2-fluoro-phenyl]-6-fluoro-1-methyl-[1,2,4]triazolo[4,3-a]quinazolin-5-amine]	
7.98	0.583	Cc1nnc2nc(N(CC(F)F)c3cccc(C#CC4(C)CC4)c3F)c3c(F)cccc3n12 [Example 52, N-(2,2-difluoroethyl)-6-fluoro-N-[2-fluoro-3-[2-(1-methylcyclopropyl)ethynyl]phenyl]-1-methyl-[1,2,4]triazolo[4,3-a]quinazolin-5-amine]	
46.2	0.669	CC(C)(C#Cc1cccc(N(CC(F)F)c2nc3nncn3c3ccc(F)cc23)c1F)C(F)F [Example 57, N-[3-(4,4-difluoro-3,3-dimethyl-but-1-ynyl)-2-fluoro-phenyl]-N-(2,2-difluoroethyl)-7-fluoro-[1,2,4]triazolo[4,3-a]quinazolin-5-amine]	
78.3	3.67	Cc1nnc2nc(N3c4cccc(C#CC5(C(F)(F)F)CC5)c4CCC3C)c3c(F)cccc3n12 (centres unmarked) [Example 58, 6-fluoro-1-methyl-5-(2-methyl-5-((1-(trifluoromethyl)cyclopropyl)ethynyl)-3,4-dihydroquinolin-1(2H)-yl)-[1,2,4]triazolo[4,3-a]quinazoline]	
69.2	532	CC(C)(O)C#Cc1cc(N(CC(F)F)c2nc3nncn3c3c(Cl)cc(F)cc23)ccn1 [Example 60, 4-(4-((9-chloro-7-fluoro-[1,2,4]triazolo[4,3-a]quinazolin-5-yl)(2,2-difluoroethyl)amino)pyridin-2-yl)-2-methylbut-3-yn-2-ol]	
8.48	3.36	CC1(C#Cc2cc(N(CC(F)F)c3nc4nncn4c4c(Cl)cc(F)cc34)ccn2)CC1 [Example 61, 9-chloro-N-(2,2-difluoroethyl)-7-fluoro-N-(2-((1-methylcyclopropyl)ethynyl)pyridin-4-yl)-[1,2,4]triazolo[4,3-a]quinazolin-5-amine]	
189	46.7	Cc1nnc2nc(N3CCCc4c(C#CC(C)(C)C(=O)NC5(C(F)(F)F)CC5)cccc43)c3c(F)cccc3n12 [Example 65, 4-(1-(6-fluoro-1-methyl-[1,2,4]triazolo[4,3-a]quinazolin-5-yl)-1,2,3,4-tetrahydroquinolin-5-yl)-2,2-dimethyl-N-(1-(trifluoromethyl)cyclopropyl)but-3-ynamide]	
12.8	6.78	Cc1cnc(C(C)(C)C#Cc2cccc3c2COCCN3c2nc3nnc(C)n3c3ccc(F)c(F)c23)o1 [Example 66, 1-(6,7-difluoro-1-methyl-[1,2,4]triazolo[4,3-a]quinazolin-5-yl)-6-(3-methyl-3-(5-methyloxazol-2-yl)but-1-yn-1-yl)-1,2,3,5-tetrahydrobenzo[e][1,4]oxazepine]	
156	11.6	Cc1nnc2nc(N(CC(F)F)c3cc(F)cc(C#CC(C)(C)c4cccnc4)c3)c3c(F)c(F)ccc3n12 [Example 67, N-(2,2-difluoroethyl)-6,7-difluoro-N-(3-fluoro-5-(3-methyl-3-(pyridin-3-yl)but-1-yn-1-yl)phenyl)-1-methyl-[1,2,4]triazolo[4,3-a]quinazolin-5-amine]	
191	9.68	Cc1nnc2nc(N(CC(F)F)c3cc(F)cc(C#CC(C)(C)c4ccccn4)c3)c3c(F)c(F)ccc3n12 [Example 68, N-(2,2-difluoroethyl)-6,7-difluoro-N-(3-fluoro-5-(3-methyl-3-(pyridin-2-yl)but-1-yn-1-yl)phenyl)-1-methyl-[1,2,4]triazolo[4,3-a]quinazolin-5-amine]	
70.5	2.26	Cc1nnc2nc(N3CCCc4c(C#CC(C)(C)C(=O)N5CCC(F)(F)CC5)cccc43)c3c(F)cccc3n12 [Example 69, 1-(4,4-difluoropiperidin-1-yl)-4-(1-(6-fluoro-1-methyl-[1,2,4]triazolo[4,3-a]quinazolin-5-yl)-1,2,3,4-tetrahydroquinolin-5-yl)-2,2-dimethylbut-3-yn-1-one]	
124	11.3	Cc1nnc2nc(N3CCCc4c(C#CC(C)(C)c5ccccn5)cccc43)c3c(F)cccc3n12 [Example 71, 6-fluoro-1-methyl-5-(5-(3-methyl-3-(pyridin-2-yl)but-1-yn-1-yl)-3,4-dihydroquinolin-1(2H)-yl)-[1,2,4]triazolo[4,3-a]quinazoline]	
